The values below come from patent publication US9200008B2 (ASKA PHARMACEUTICAL CO., LTD., priority 2010, dated 2015).

This assay concerns Human prostate cancer cell lines (PC-3 cells). Nature of the assay: Measurement of cell death-inducing activity (Test Example 1). It is filed as cell-based. Conditions: PC-3, 48 h, 48 hours after addition, tested at 10, 1, 0.1, 0.025 and 0.00625 μmol/L, qualitative evaluation of 10 fields, read-out: Concentration showing the cell death-inducing activity (cell death-inducing rate not less than 40%). The procedure, abridged:
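Compound treatment lasted 48 h at 10 to 0.00625 μmol/L (five levels, DMSO as control) on PC-3 cells pre-cultured 48 h at 37 °C, 5% CO2 after seeding at 1×10^5 cells/well. A cell death-inducing rate of 40% or more counted as active.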

As to `CCc1nc(-c2ccc(C)cc2OC)sc1NC(=O)OCc1ccc2c(c1)nc1n2CCOC1` [Example 9-358], the minimal effective concentration is 0.025 µM.
As for `CCn1nc2c(c1NC(=O)OCc1ccc3c(c1)ncn3C)COc1ccccc1-2` [Example 9-321], the figure is 10 µM; as for `COc1cc(Cl)ccc1-c1nc(C)c(C(=O)N/N=C/c2cccc3[nH]ccc23)s1` [Example 23-94], 1 µM; as for `COc1cc(F)ccc1-c1cc(NC(=O)OCc2ccc3nn(C)cc3c2)n(C)n1` [Example 9-290], 0.1 µM.
For the molecule `COc1cc(Cl)ccc1-c1cc(C(=O)N/N=C/c2ccc3c(c2)nc2n3CCOC2)sn1` [Example 49-5, 3-(4-Chloro-2-methoxyphenyl)isothiazole-5-carboxylic acid[1-(3,4-dihydro-1H-2-oxa-4a,9-diaza-fluoren-7-yl)methylidene]hydrazide], the minimal effective concentration was found to be 1 µM.
Regarding `Cc1nc(-c2ccccc2)sc1NC(=O)OCc1ccc2c(c1)ncn2C` [Example 9-32], the minimal effective concentration was 1 µM.
Regarding `CCn1ncc2cc(/C=N/NC(=O)c3cc(-c4ccccc4OC)ns3)ccc21` [Example 49-7, 3-(2-Methoxyphenyl)isothiazole-5-carboxylic acid[1-(1-ethyl-1H-indazol-5-yl)methylidene]hydrazide], the minimal effective concentration worked out at 1 µM.
As for `Cc1ccc(-c2nc(C)c(NC(=O)OCc3ccc4c(c3)ncn4C)s2)cc1` [Example 9-35], the figure is 0.1 µM.
Take `CCc1nc(-c2ccc(C)cc2C)sc1NC(=O)OCc1ccc2c(c1)ncn2C` [Example 9-182]: the minimal effective concentration stood at 0.025 µM.
Regarding `CCn1nc(-c2ccc(F)cc2OC)cc1COC(=O)Nc1ccc2c(c1)ncn2CC` [Example 13-83], the minimal effective concentration amounted to 0.025 µM.
As for `COc1cc(Cl)ccc1-c1nc(C)c(NC(=O)OCc2ccc3c(c2)nc2n3CCSC2)s1` [Example 40-1, [2-(4-Chloro-2-methoxyphenyl)-4-methylthiazol-5-yl]carbamic acid 3,4-dihydro-1H-2-thia-4a,9-diazafluoren-7-ylmethyl ester], the minimal effective concentration is 0.025 µM.
For the molecule `Cn1nc(-c2ccccc2)cc1NC(=O)OCc1ccc2c(c1)ncn2C` [Example 9-204], the minimal effective concentration was 10 µM.
For `COc1cc(Cl)ccc1-c1cc(NC(=O)OCc2ccc3cn(C)nc3c2)n(C)n1` [Example 9-300], the minimal effective concentration turned out to be 0.00625 µM.
Turning to `COc1cc(Cl)ccc1-c1cc(COC(=O)Nc2ccc3c(c2)ncn3C)n(C)n1` [Example 13-84], the minimal effective concentration came to 0.00625 µM.
With `CCn1ncc2cc(COC(=O)Nc3sc(-c4ccccc4OC)nc3C)ccc21` [Example 9-134], the minimal effective concentration stood at 0.025 µM.
`Cc1nc2cc(NC(=O)OCc3sc(-c4ccc(Cl)cc4C)nc3C)ccc2s1` [Example 42-2, (2-Methylbenzothiazol-5-yl)carbamic acid 2-(4-chloro-2-methylphenyl)-4-methylthiazol-5-ylmethyl ester]: the minimal effective concentration is 1 µM.
To `COc1cc(F)ccc1-c1nc(C)c(NC(=O)OCc2ccc3c(cnn3C)c2)s1` [Example 9-127] belongs 0.1 µM; to `COc1cc(Cl)ccc1-c1nc(C)c(CC(=O)N/N=C/c2cc(C)c(O)c(C)c2)s1` [Example 29-2, [2-(4-Chloro-2-methoxyphenyl)-4-methylthiazol-5-yl]acetic acid[1-(4-hydroxy-3,5-dimethylphenyl)methylidene]hydrazide], 1 µM; to `Cc1cc(Cl)ccc1-c1nc(C)c(C(=O)NNCc2ccc3c(ccn3C)c2)s1` [Example 17-1], 0.1 µM.
On to `Cc1nc(-c2ccc(F)cc2)sc1NC(=O)OCc1ccc2c(c1)ncn2C` [Example 9-45], for which the minimal effective concentration amounted to 1 µM.
Turning to `CCn1nnc2cc(COC(=O)Nc3sc(-c4ccc(F)cc4C)nc3C)ccc21` [Example 9-27], the minimal effective concentration worked out at 0.025 µM.
For the molecule `CCn1c(C)nc2cc(NC(=O)OCc3sc(-c4ccc(C)cc4C)nc3C)ccc21` [Example 13-20], the minimal effective concentration came to 1 µM.
For the molecule `Cc1cc(Cl)ccc1-c1nc(C)c(NC(=O)OCc2ccc3c(ccn3C)c2)s1` [Example 9-31], the minimal effective concentration was 1 µM.
For the molecule `COCCn1cnc2cc(NC(=O)OCc3cc(-c4ccc(Cl)cc4OC)nn3C)ccc21` [Example 13-94], the minimal effective concentration worked out at 1 µM.
Consider `COc1ccccc1-c1nc(C)c(C(=O)N/N=C/c2ccc3c(ccn3C)c2)s1` [Example 23-92], for which the minimal effective concentration is 0.025 µM.
As for `CCn1ncc2cc(COC(=O)Nc3sc(-c4ccc(C)cc4C)nc3C)ccc21` [Example 9-139], the figure is 0.025 µM; as for `CCn1cnc2cc(COC(=O)Nc3cc(-c4ccc(C)cc4OC)nn3C)ccc21` [Example 9-228], 0.00625 µM.
Regarding `Cc1ccccc1-c1cc(NC(=O)OCc2ccc3c(c2)ncn3C)n(C)n1` [Example 9-205], the minimal effective concentration came to 1 µM.
For `CCc1nc(-c2ccc(F)cc2OC)sc1NC(=O)OCc1ccc2c(cnn2CC)c1` [Example 9-360], the minimal effective concentration worked out at 0.025 µM.
For the molecule `Cc1cc(/C=N/NC(=O)c2cc(-c3ccc(Cl)cc3)c[nH]2)cc(C)c1O` [Example 24-3, 4-(4-Chlorophenyl)-1H-pyrrole-2-carboxylic acid[1-(4-hydroxy-3,5-dimethylphenyl)methylidene]hydrazide], the minimal effective concentration was 0.1 µM.
For the molecule `COc1ccc(/C=N/NC(=O)c2sc(-c3ccc(Cl)cc3)nc2C)cc1B(O)O` [Example 23-140], the minimal effective concentration was determined as 1 µM.
For `CCn1nc(-c2ccc(Cl)cc2Cl)cc1NC(=O)OCc1ccc2c(c1)ncn2C` [Example 9-208], the minimal effective concentration was found to be 0.025 µM.
As for `COc1cc(Cl)ccc1-c1nc(C)c(C(=O)NNCc2cc(C)c(O)c(C)c2)s1` [Example 17-3, 2-(4-Chloro-2-methoxyphenyl)-4-methylthiazole-5-carboxylic acid N′-(4-hydroxy-3,5-dimethylbenzyl)hydrazide], the minimal effective concentration was 1 µM.
As for `CCn1nc(-c2ccc(C)cc2C)cc1NC(=O)OCc1ccc2c(c1)ncn2C` [Example 9-234], the minimal effective concentration was 0.025 µM.
As to `Cc1cc(F)ccc1-c1nc(C)c(COC(=O)Nc2ccc3c(c2)nc2n3CCCC2)s1` [Example 13-34], the minimal effective concentration was found to be 0.025 µM.
With `COc1ccc(/C=N/NC(=O)c2sc(-c3ccc(Cl)cc3C)nc2C)cc1O` [Example 23-46], the minimal effective concentration amounted to 0.025 µM.
As for `COc1cc(Cl)ccc1-c1cc(C(=O)N/N=C/c2ccc3c(c2)ncn3C)sn1` [Example 49-1], the minimal effective concentration worked out at 0.025 µM.
To `COc1cc(Cl)ccc1-c1cc(NC(=O)OCc2ccc3c(c2)ncn3C)nn1C` [Example 9-309] belongs 10 µM; to `COc1ccc(NC(=O)OCc2cc(-c3ccc(C)cc3OC)nn2C)cc1F` [Example 13-72], 1 µM.
With `CCn1nc(-c2ccc(C)cc2C)cc1COC(=O)Nc1ccc2c(c1)nc1n2CCCC1` [Example 13-123], the minimal effective concentration came to 0.025 µM.
Regarding `COc1cc(Cl)ccc1-c1cc(NC(=O)OCc2ccc3c(c2)nc2n3CCC2)n(C)n1` [Example 9-258], the minimal effective concentration was found to be 0.025 µM.
As to `CCCc1nc(-c2ccc(Cl)cc2)sc1C(=O)N/N=C/c1cc(C)c(O)c(C)c1` [Example 23-107], the minimal effective concentration was determined as 10 µM.
